Assay results taken from EP4741383A1, “COMPOUND AND USE THEREOF AS ANTI-CANCER DRUG” (Tyligand Bioscience (Shanghai) Limited, priority 2023, dated 2025).

Experiments:
Format in all cases: cell-based
A20 = assay: CellTiter-Glo cell proliferation inhibition, A20; conditions: A20 (mouse B-cell lymphoma cell line), 72 hours; read-out: Example IC50 (µM) A20
Source text: (§1) This experiment used the CellTiter-Glo® Luminescent Cell Viability Assay kit from Promega to evaluate the inhibitory activity of the disclosed compounds on the proliferation of the following cell lines: 4T1 (mouse breast cancer cell line), A20 (mouse B-cell lymphoma cell line), A2780 (human ovarian cancer cell line), AsPC-1 (pancreatic cancer cell line), B16F10 (mouse melanoma cell line), BT549 (human breast cancer cell line), CT26 (mouse colon cancer cell line), EMT6 (mouse breast cancer cell line), HCT116 (colorectal cancer cell line), Jurket (acute leukemia cell line), KP-4 (pancreatic cancer cell line), LL/2 (mouse lung cancer cell line), MCF7 (breast cancer cell line), […] NCI-H358 (lung cancer cell line), NCI-H727 (gastric cancer cell line), NCI-1944 (lung cancer cell line), Pan 04.03 (pancreatic cancer cell line), SK-BR-3 (breast cancer cell line), THP-1 (leukemia cell line), TOV21G (ovarian cancer cell line), U87MG (glioblastoma cell line), and UM-UC-a (bladder cancer cell line).
(§2) All cell lines were purchased from Nanjing Kebai Biotechnology Co., Ltd. The following materials were also used in the experiment: RPMI-1640 media (HyClone, catalog number #SH30022.01), McCoy's 5A media (Thermo Fisher, catalog number #16600-082), MCDB 105 media (Sigma, catalog number #117-500), Medium 199 (Thermo Fisher, catalog number #11150-059), MEM media (Thermo Fisher, catalog number #11095-080), DMEM media (HyClone, catalog number #SH30027.01), fetal bovine serum (FBS) (ExCell, catalog number # M4530), Sodium Pyruvate (100Mm) (Thermo Fisher, catalog number #11360-070), and MEM NEAA (100X) (Thermo Fisher). […]
(§3) Cells were cultured according to the instructions provided by the cell supplier (Nanjing Kebai Biotechnology Co., Ltd.). […] Suspension or adherent cells were collected, and cell viability was determined using the trypan blue exclusion method, ensuring that cell viability was above 90%. […]

HCT116 = assay: CellTiter-Glo cell proliferation inhibition, HCT116; conditions: Homo sapiens, HCT-116; HCT116 (colorectal cancer cell line), 72 hours; read-out: Example IC50 (µM) HCT116
Source text: as §1, §2, §3

SK-BR-3 = assay: CellTiter-Glo cell proliferation inhibition, SK-BR-3; conditions: Homo sapiens; SK-BR-3 (breast cancer cell line), 72 hours; read-out: Example IC50 (µM) SK-BR-3
Source text: as §1, §2, §3

THP-1 = assay: CellTiter-Glo cell proliferation inhibition, THP-1; conditions: Homo sapiens; THP-1 (leukemia cell line), 72 hours; read-out: Example IC50 (µM) THP-1
Source text: as §1, §2, §3

| SMILES | IC50 (A20) | IC50 (HCT116) | IC50 (SK-BR-3) | IC50 (THP-1) |
| --- | --- | --- | --- | --- |
| O=C(Nc1ccc(-c2csc(CO)c2)cc1)C(=O)Nc1ccc(-c2cc3cc(F)c(-c4nnn[nH]4)cc3n2C2CCC2)cc1 [Example 1] | 0.077 µM | 0.111 µM | 0.14 µM | 0.086 µM |
| O=C(Nc1ccc(-c2cc3cc(F)c(-c4nnn[nH]4)cc3n2C2CCC2)cc1)C(=O)Nc1ccc(N2CCC3(CCC(O)C3)CC2)cc1 (stereo not drawn) [Example 100] | 0.128 µM | 0.044 µM | 0.044 µM | 0.07 µM |
| CC1(n2c(-c3ccc(NC(=O)C(=O)Nc4ccc(N5CCC6(CCOC6)CC5)cc4)cc3)cc3cc(F)c(-c4nnn[nH]4)cc32)CCC1 [Example 68] | 0.075 µM | 0.078 µM | 0.057 µM | 0.063 µM |
